Test results: a melting point compilation (Tetko et al.; mined from patent text by program, amines drawn as free bases though some values may be those of a salt)

Row | melting point | Compound
1 | 98 to 100 °C | OCCc1ccc2c(c1)sc1ccc(Cl)cc12
2 | 135 to 136 °C | Cc1cc2c(cnn2-c2c(Cl)cc(C(F)(F)F)cc2Cl)nc1C
3 | 208 to 212 °C | CCCn1c(=O)c(N=O)c(N)n(Cc2ccccc2)c1=O
4 | 145 to 147 °C | CCC(=O)NCCC1c2cc(OC)ccc2-c2ccc3c(c21)OCO3 (stereo not drawn)
5 | 168 °C | CN(C(=O)CN(C(=O)CN1C(=O)c2ccccc2C1=O)c1ccccc1Cl)c1ccccc1
6 | 111 to 113 °C | Cc1c(NC(=O)c2ccc(OC[C@@H]3CCCO3)cc2)ccc2cc(CNCCOC(C)C)cnc12
7 | 68 to 70 °C | CC(C)(C)OC(=O)N[C@H]1C=C[C@@H](CO)C1
8 | 185 to 190 °C | CC(=Nc1ccc(C2=NNC(=O)CC2C)cc1)c1ccc(O)cc1O (stereo not drawn)
9 | 189 to 190 °C | O=C(OCc1ccc(C(F)(F)F)cc1)N1CCC2(CC1)Cn1cc([N+](=O)[O-])nc1O2
10 | 60 to 61 °C | CCOC(=O)NCCCCc1ccccc1
11 | 325 °C | O=C(Nc1ccc2ccc(Cl)nc2n1)c1cscn1
12 | 117 to 119 °C | Cc1ccc(C)c(-c2sc(NC(=O)[C@@H]3C[C@@H]4CC[C@H]3C4)c(C#N)c2Cl)c1
13 | 232 °C | COc1ccc(S(=O)(=O)N(CC(N)=O)c2ccc(F)cc2C(O)c2ccccc2Cl)cc1OC (stereo not drawn)
14 | 48 to 50 °C | Cc1cc(Br)cc(C=O)c1F
15 | 244 to 246 °C | COc1cccc(C(=O)NCc2cccc3c2CN(C2CCC(=O)NC2=O)C3=O)c1 (stereo not drawn)
16 | 109 to 111 °C | COC(=O)c1sc(OC)c(Cl)c1O
17 | > 260 °C | COc1cc(OC)c(-c2c(C)noc2C)cc1C=CC(=O)c1ccc(C(=O)O)cc1
18 | 195 to 196 °C | CCCS(=O)(=O)N[C@@H](CC(C)C)C(=O)N[C@@H](C(C)C)[C@@H](O)c1c(-c2ccccc2)c1=O

Row | melting point | Compound
19 | 258 °C | O=C(O)c1ccc2cc(-c3ccc(CC(O)CO)c(C45CC6CC(CC(C6)C4)C5)c3)ccc2c1 (stereo not drawn)
20 | 87 °C | C[C@@H](O)[C@H](NC(=O)OC(C)(C)C)C(=O)NOCc1ccccc1
21 | 38 to 42 °C | COc1c2c(c(OC)c(OC)c1OC)CC(CCCCCCCCOc1ccc(Cl)cc1)C2
22 | 75 to 77 °C | CC1(C)Cc2cc(S(=O)(=O)Cl)ccc2O1
23 | 220 to 231 °C | Cc1ccc2cccc(OCc3c(Cl)ccc(N(C)C(=O)CNC(=O)/C=C/c4ccc(NC(=O)c5cnccn5)nc4)c3Cl)c2n1
24 | 163 to 164 °C | CCCOc1ncc(C(C)=O)cc1-c1nc2c(CC)n(C3CN(C(C)C)C3)nc2c(=O)[nH]1
25 | 198 to 200 °C | CNC(=O)Nc1nnc(C(F)F)s1
26 | 110 to 112 °C | Cc1nc(N2C[C@@H](C)N(Cc3ccc(C(F)(F)F)cc3)C2=O)sc1C(N)=O
27 | 114 to 116 °C | CCOC(=O)[C@H](Cc1ccc(-c2c(OC)cc(C=O)cc2OC)cc1)NC(=O)c1c(F)cccc1F
28 | 198 to 200 °C | COc1ccc(C(=O)N2c3ccccc3C(n3c4ccccc4c4ccccc43)CC2CCCCCN(C)C)cc1OC (stereo not drawn)
29 | 90 to 95 °C | CC(=O)NC[C@H]1CN(c2ccc(N3C[C@@H]4C[C@H]3CS4)c(F)c2)C(=O)O1
30 | 122 to 124 °C | CCOC(=O)C1=C(CSC(=N)N)NC(C)=C(C(=O)OC)C1c1cccc([N+](=O)[O-])c1 (single isomer, unassigned; (+))
31 | 188 to 190 °C | CCC(Oc1ccc(C(C)(C)CC)cc1C(C)(C)CC)C(=O)Nc1cc(OC(C)=O)c(C)c(Cl)c1O (stereo not drawn)
32 | 263 to 270 °C | Nc1c(C(=O)c2cccc(C(=O)O)c2)[nH]c2cc(Cl)ccc12
33 | 132 °C | CCOC(=O)c1c(O)c2cc(C)ccc2n(C)c1=O
34 | 45 °C | CCOC(=O)C(Oc1ccccc1)c1ccccc1 (stereo not drawn)
35 | 132 to 133 °C | O=C(O)Cc1ccc(-n2cc(Cl)cn2)c(Cl)c1
36 | 154 to 155 °C | CC1(C)C=Cc2cc(C#N)c([N+](=O)[O-])cc2O1

Row | Compound | melting point
37 | O=[N+]([O-])c1cccc(P(=O)(O)O)c1 | 148 to 155 °C
38 | CN(C)C(=S)Oc1ccc(CC#N)cc1 | 120 to 124 °C
